The values that follow come from patent US11912678B2, “LRRK2 inhibiting compounds and use thereof for treating neurodegenerative diseases” (CONSEJO SUPERIOR DE INVESTIGACIONES CIENTÍFICAS, priority 2018, dated 2024).

Data set [1] concerns human neuronal line SH-SY5Y. Kind of data set: Neuroprotection against okadaic acid-induced tau hyperphosphorylation (MTT). To be noted: compounds 1, 5 and 10 μM pre-incubated 1 hour, OA 30 nM 24 hours. The format is cell-based. On the procedure: The neuroprotective potential of the compounds was evaluated in an okadaic acid (OA)-induced neurodegeneration cell model. OA is an inhibitor of phosphatase 1 and 2 and is normally used to induce tau hyperphosphorylation in different cell lines. In this case, the human neuronal line SH-SY5Y is used. The cells are cultured in DMEM medium supplemented with 10% FBS and 1% penicillin/streptomycin at 37° C. and in an incubator with 5% CO2. The SH-SY5Y cells are sown on a 96-well plate at a density of 60,000 cells per well for 48 hours. After this time period, the cells are pre-incubated with the compounds to be studied at a concentration of 1, 5 and 10 μM for 1 hour. After that time period, OA is added at a concentration of 30 nM, letting the plate incubate for a further 24 hours. Next, the cells were incubated with an MTT solution at 0.5 mg·mL^−1 for at least 4 hours at 37° C. and 5% CO2. Next, the culture medium is removed and the formazan crystals joined to the base of the plate are dissolved with 200 μL of DMSO. Lastly, UV absorbance was measured at 595 nm in a plate reader (Varioskan Flash Microplate reader, Thermo Scientific).

The next data set deals with LRRK2 (Homo sapiens (Human), UniProt Q5S007). Kind of data set: Inhibition of LRRK2 (Adapta kinase assay). To be noted: Adapta method, 60 min kinase reaction. The format is biochemical. On the procedure: (§1) The compounds were evaluated in LRRK2 and in the mutated form LRRK2 G2019S. This mutation is more frequent in the familial forms of Parkinson's Disease and has a significant increase in kinase activity. The experimental determination of the inhibition of both enzymes was carried out using the Adapta® method, which is an evaluation method of fluorescent kinase activity that determines ADP in a highly sensitive manner. The methodology can be divided into two stages: kinase reaction and ADP determination. In the first stage, all the components for the kinase reaction are added to the well and incubated for 60 min. After the reaction, the ADP detection solution which contains a Europium-labeled anti-ADP antibody (Alexa Fluor® 647 labeled ADP tracer) and EDTA, to stop the kinase reaction, are added to the reaction well. The ADP formed in the kinase reaction without inhibitor will displace the Alexa Fluor® 647 labeled ADP tracer of the antibody, resulting in the TR-FRET signal decrease.
Chain of LRRK2 (Q5S007 whole entry): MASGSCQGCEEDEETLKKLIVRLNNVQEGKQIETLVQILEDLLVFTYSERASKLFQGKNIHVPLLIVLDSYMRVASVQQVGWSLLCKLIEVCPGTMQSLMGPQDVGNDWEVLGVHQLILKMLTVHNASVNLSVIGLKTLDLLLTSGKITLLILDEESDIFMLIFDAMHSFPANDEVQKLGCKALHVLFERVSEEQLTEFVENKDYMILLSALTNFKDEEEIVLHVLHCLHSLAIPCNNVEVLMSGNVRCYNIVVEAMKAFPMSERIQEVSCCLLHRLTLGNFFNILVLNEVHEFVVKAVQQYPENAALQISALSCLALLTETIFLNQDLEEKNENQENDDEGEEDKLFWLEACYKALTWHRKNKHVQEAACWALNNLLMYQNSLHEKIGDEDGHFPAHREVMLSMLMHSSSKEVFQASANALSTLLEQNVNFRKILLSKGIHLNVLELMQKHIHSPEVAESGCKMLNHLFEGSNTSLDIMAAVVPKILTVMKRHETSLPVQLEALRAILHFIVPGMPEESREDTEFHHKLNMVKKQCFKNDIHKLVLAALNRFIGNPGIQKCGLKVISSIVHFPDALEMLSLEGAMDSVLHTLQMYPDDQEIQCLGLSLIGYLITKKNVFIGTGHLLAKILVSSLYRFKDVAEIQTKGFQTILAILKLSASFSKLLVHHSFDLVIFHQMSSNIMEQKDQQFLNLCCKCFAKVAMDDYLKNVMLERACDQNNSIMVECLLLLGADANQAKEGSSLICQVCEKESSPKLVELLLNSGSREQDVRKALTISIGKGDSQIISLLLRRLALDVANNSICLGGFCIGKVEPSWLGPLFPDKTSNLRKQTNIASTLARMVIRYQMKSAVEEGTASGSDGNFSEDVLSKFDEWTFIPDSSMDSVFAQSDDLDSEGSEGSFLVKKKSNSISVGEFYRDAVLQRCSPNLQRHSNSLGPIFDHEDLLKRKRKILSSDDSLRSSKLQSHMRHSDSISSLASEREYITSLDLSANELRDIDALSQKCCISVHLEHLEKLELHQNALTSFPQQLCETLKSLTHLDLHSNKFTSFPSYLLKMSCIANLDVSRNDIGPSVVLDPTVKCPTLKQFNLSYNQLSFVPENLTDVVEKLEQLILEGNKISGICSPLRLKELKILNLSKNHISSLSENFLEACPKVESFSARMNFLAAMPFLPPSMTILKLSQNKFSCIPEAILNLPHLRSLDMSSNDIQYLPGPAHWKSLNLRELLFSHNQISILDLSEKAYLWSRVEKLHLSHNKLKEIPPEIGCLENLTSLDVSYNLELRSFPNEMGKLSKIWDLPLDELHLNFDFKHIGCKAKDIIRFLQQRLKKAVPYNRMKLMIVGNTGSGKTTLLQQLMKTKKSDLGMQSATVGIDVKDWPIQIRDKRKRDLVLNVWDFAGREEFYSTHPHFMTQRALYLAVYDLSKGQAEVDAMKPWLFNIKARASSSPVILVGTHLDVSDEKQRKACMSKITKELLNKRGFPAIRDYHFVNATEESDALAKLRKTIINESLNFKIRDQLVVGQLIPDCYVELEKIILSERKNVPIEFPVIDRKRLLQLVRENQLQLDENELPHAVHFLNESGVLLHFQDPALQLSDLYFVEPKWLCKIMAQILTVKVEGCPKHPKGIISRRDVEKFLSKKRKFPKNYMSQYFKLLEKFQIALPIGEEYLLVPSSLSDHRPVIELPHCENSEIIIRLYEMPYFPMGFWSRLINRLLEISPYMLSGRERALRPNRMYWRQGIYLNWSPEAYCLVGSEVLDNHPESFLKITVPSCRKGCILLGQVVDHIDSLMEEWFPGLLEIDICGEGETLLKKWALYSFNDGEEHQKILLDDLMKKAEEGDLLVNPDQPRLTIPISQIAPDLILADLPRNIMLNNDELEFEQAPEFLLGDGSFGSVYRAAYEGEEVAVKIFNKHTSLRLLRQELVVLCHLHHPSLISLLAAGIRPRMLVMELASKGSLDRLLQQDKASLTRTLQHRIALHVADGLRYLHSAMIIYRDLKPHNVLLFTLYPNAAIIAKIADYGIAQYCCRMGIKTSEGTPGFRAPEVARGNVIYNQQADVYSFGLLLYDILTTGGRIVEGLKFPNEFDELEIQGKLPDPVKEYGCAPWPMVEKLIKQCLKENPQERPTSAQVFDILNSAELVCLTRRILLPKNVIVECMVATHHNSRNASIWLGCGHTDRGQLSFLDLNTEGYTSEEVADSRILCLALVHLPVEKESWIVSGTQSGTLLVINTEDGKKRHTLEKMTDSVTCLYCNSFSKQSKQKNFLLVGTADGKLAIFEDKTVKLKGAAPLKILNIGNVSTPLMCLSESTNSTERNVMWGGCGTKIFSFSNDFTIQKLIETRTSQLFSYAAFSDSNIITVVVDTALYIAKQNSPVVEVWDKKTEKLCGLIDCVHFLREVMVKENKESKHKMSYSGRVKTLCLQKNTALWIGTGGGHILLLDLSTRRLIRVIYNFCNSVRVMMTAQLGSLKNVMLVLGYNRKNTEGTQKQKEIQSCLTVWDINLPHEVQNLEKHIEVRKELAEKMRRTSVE
(§2) The assay is performed in 384-well plates. Adding 100 nL of the solution with the compound to be evaluated in 1% DMSO, 2.4 μL of HEPES solution, 2.5 μL of ATP solution, […] of substrate solution. The 10 μl of the kinase reaction contain: […] LRRK2 and 200 μM ERM (LRRKtide) in 25 mM Tris/7.5 mM HEPES pH 8.2, 0.005% BRIJ-35, 5 mM MgCl2, 0.5 mM EGTA, 0.01% NaN3 or 3-12 ng LRRK2 G2019S and 200 μM ERM (LRRKtide) in 25 mM Tris/7.5 mM HEPES pH 8.2, 0.005% BRIJ-35, 5 mM MgCl2, 0.5 mM EGTA, 0.01% NaN3. The plate is stirred for 30 s on a stirring plate and centrifuged for 1 min in a centrifuge at 1,000×g. The reaction is incubated at room temperature for 60 min. After this time period, 5 μL of the detection mixture is added, the plate is stirred for 30 s on a stirring plate and centrifuged for 1 min at 1,000×g. Fluorescence is determined in a plate reader and the data are analysed.

For another data set, the target named is LRRK2 G2019S (Homo sapiens (Human), UniProt Q5S007, G2019S). Put plainly: Inhibition of LRRK2 G2019S (Adapta kinase assay). In kind it is biochemical. As to conditions: Adapta method, 60 min kinase reaction. How it is done:
as §1, §2

A short description of another data set: in vitro. To be noted: PAMPA; for Pe (10−6 cm s−1) / Papp at 2.5 h: pig, pH 7.4; for Pe (10−6 cm s−1): 2.5 h. An excerpt:
The above-referenced commercial compounds, phosphate buffer at pH=7.4 (PBS), Ethanol and dodecane were obtained from the commercial houses Sigma, Acros organics, Merck, Aldrich and Fluka, respectively. […] To filter the samples, PVDF membrane filters were used (30 mm diameter, 0.45 μm pore size) from the company Symta. The equipment used to measure UV absorbance in 96-well plates was a Thermoscientific Multiskan spectrum.
Ten reference compounds were selected, whose blood-brain barrier passage is known, in order to validate the experiment. […] The solutions were filtered. Next, 180 μL of a PBS/EtOH (70/30) solution were added to each well of the acceptor plate. The donor plate was impregnated with 4 μL of a pig brain lipid solution dissolved in dodecane (20 mg mL^−1). After 5 minutes, 180 μL of solution of each compound were added on this plate. Of the compounds whose penetration in the central nervous system is being evaluated, between 1-2 mg were taken and dissolved in 1,500 μL of EtOH and 3,500 μL of PBS phosphate buffer (pH=7.4), filtered and added to the 96-well donor plate. Next, the donor plate was placed on top of the acceptor plate forming a kind of “sandwich” and left to incubate for 2 h and 30 min at 25° C. The passive transport compounds pass from the donor plate through the pig brain lipid to the acceptor plate. After 2 h and 30 min, the donor plate is carefully removed. The concentration and absorbance of both the commercial compounds and the synthesised derivatives that were evaluated in the acceptor and donor plates were determined using a UV absorbance reader. Each sample was analysed at 2 to 5 wavelengths, in at least three wells and in two independent experiments. […] Ten reference commercial compounds whose penetration in the central nervous system is known were used in each experiment in order to validate the method.

Chain of LRRK2 G2019S (Q5S007 whole entry G2019S): as the sequence (Q5S007 whole entry) above, with G2019S counted along it

For the compound `O=C(Nc1nc2ccccc2s1)c1ccc(N2CCOCC2)cc1` [Compound 1, N-(benzothiazole-2-yl)-4-morpholinobenzamide], the “Neuroprotection against okadaic acid damage / tau hyperphosphorylation” value in data set [1] is given as “prevents the damage caused by the okadaic acid”. The same compound had an IC50 against LRRK2 of 696 nM. Moreover, the IC50 on LRRK2 G2019S was 360 nM. For the same compound, in “in vitro”, the “Blood-brain barrier penetration by passive diffusion” value (“Blood-brain barrier penetration” for short) is “capable of penetrating the blood-brain barrier by passive diffusion” and the “Pe (10−6 cm s−1)” value is given as 13.4 ± 2.4 10−6 cm s−1.
For `COc1ccc2nc(NC(=O)c3ccc(N4CCOCC4)cc3)sc2c1` [Compound 2, N-(6-methoxybenzothiazole-2-yl)-4-morpholinobenzamide], the “Neuroprotection against okadaic acid damage / tau hyperphosphorylation” value in data set [1] was “prevents the damage caused by the okadaic acid”. Also, the values for the concentration for half-maximal inhibition (IC50) against LRRK2 and on LRRK2 G2019S were 368 nM and 108 nM, respectively.
Consider `O=C(Nc1nc2ccc(C(F)(F)F)cc2s1)c1ccc(N2CCOCC2)cc1` [Compound 3, N-(6-trifluoromethylbenzothiazole-2-yl)-4-morpholinobenzamide], for which, in data set [1], the “Neuroprotection against okadaic acid damage / tau hyperphosphorylation” value was “prevents the damage caused by the okadaic acid”. In addition, the figures for the half-maximal inhibitory concentration (IC50) against LRRK2 and against LRRK2 G2019S were 1060 nM and 293 nM, respectively.
Turning to `Cc1ccc2nc(NC(=O)c3ccc(N4CCOCC4)cc3)sc2c1` [Compound 4, N-(6-methylbenzothiazole-2-yl)-4-morpholinobenzamide], in data set [1], the “Neuroprotection against okadaic acid damage / tau hyperphosphorylation” value is given as “prevents the damage caused by the okadaic acid”. In addition, the half-maximal inhibitory concentration (IC50) on LRRK2 is 523 nM; at LRRK2 G2019S, 332 nM. The “Blood-brain barrier penetration” value in “in vitro” is “capable of penetrating the blood-brain barrier by passive diffusion”. Further, the “Pe (10−6 cm s−1)” value in the data set “in vitro” is reported as 19.0 ± 2.6 10−6 cm s−1.
Consider `O=C(Nc1nc2ccc(Cl)cc2s1)c1ccc(N2CCOCC2)cc1` [Compound 5, N-(6-chlorobenzothiazole-2-yl)-4-morpholinobenzamide], for which the “Neuroprotection against okadaic acid damage / tau hyperphosphorylation” value in data set [1] was “prevents the damage caused by the okadaic acid”. 777 nM corresponded to half-maximal inhibition against LRRK2 (IC50). In addition, in the data set “in vitro”, the “Prediction of penetration in the central nervous system (CNS)” value is listed as “CNS+/−” and the Papp at 2.5 h was 3.42 ± 1.26 ×10⁻⁶ cm/s.
Regarding `O=C(Nc1nc2ccc(F)cc2s1)c1ccc(N2CCOCC2)cc1` [Compound 6, N-(6-fluorobenzothiazole-2-yl)-4-morpholinobenzamide], the “Neuroprotection against okadaic acid damage / tau hyperphosphorylation” value in data set [1] is reported as “prevents the damage caused by the okadaic acid”. Further, the IC50 at LRRK2 was determined as 190 nM. Also, the half-maximal inhibitory concentration (IC50) on LRRK2 G2019S came to 426 nM. In “in vitro”, the “Blood-brain barrier penetration” value is “capable of penetrating the blood-brain barrier by passive diffusion” and the “Pe (10−6 cm s−1)” value is given as 5.1 ± 0.1 10−6 cm s−1.
Regarding `CCOc1ccc2nc(NC(=O)c3ccc(N4CCOCC4)cc3)sc2c1` [Compound 7, N-(6-ethoxybenzothiazole-2-yl)-4-morpholinobenzamide], in data set [1], the “Neuroprotection against okadaic acid damage / tau hyperphosphorylation” value is listed as “prevents the damage caused by the okadaic acid”. Further, the IC50 on LRRK2 amounted to 308 nM; against LRRK2 G2019S, 158 nM.
Consider `O=C(Nc1nc2ccc(Br)cc2s1)c1ccc(N2CCOCC2)cc1` [Compound 8, N-(6-bromobenzothiazole-2-yl)-4-morpholinobenzamide], for which, in data set [1], the “Neuroprotection against okadaic acid damage / tau hyperphosphorylation” value was “prevents the damage caused by the okadaic acid”. Besides, the values for the IC50 against LRRK2 and on LRRK2 G2019S were 474 nM and 1380 nM, respectively.
Turning to `CCCOc1ccc2nc(NC(=O)c3ccc(N4CCOCC4)cc3)sc2c1` [Compound 9, N-(6-propoxybenzothiazole-2-yl)-4-morpholinobenzamide], the “Neuroprotection against okadaic acid damage / tau hyperphosphorylation” value in data set [1] is “prevents the damage caused by the okadaic acid”. For the same compound, the figures for the IC50 against LRRK2 and at LRRK2 G2019S were 4000 nM and 1190 nM, respectively. The same compound yielded an apparent permeability coefficient (Papp) at 2.5 h in “in vitro” of 4.28 ± 3.45 ×10⁻⁶ cm/s.
For `CC(C)c1ccc2nc(NC(=O)c3ccc(N4CCOCC4)cc3)sc2c1` [Compound 10, N-(6-isopropylbenzothiazole-2-yl)-4-morpholinobenzamide], in data set [1], the “Neuroprotection against okadaic acid damage / tau hyperphosphorylation” value was “prevents the damage caused by the okadaic acid”. Also, the results for the IC50 against LRRK2 and against LRRK2 G2019S were 1950 nM and 1170 nM, respectively. The same compound came in with an apparent permeability (Papp) at 2.5 h in the data set “in vitro” of 4.27 ± 2.7 ×10⁻⁶ cm/s.
Turning to `CN1C(C(=O)Nc2ccccn2)=C(O)c2ccccc2S1(=O)=O` [Piroxicam, reference compound], in the data set “in vitro”, the “Pe (10−6 cm s−1)” value is 0.6 ± 0.2 10−6 cm s−1.
Consider `CN(C)CCCN1c2ccccc2Sc2ccccc21` [Promazine, reference compound], for which the “Pe (10−6 cm s−1)” value in “in vitro” was 9.8 ± 0.5 10−6 cm s−1.
